Tests used:
[1] = Inhibition of mouse EGFR D770_N771insNPG mutant stably expressed in mouse BaF3 cells assessed as cell viability incubated for 3 days by Cell Titer-Glo assay; format: cell-based; conditions: BaF3, 72 h
[2] = Inhibition of mouse EGFR V769_D770insASV mutant stably expressed in mouse BaF3 cells assessed as cell viability incubated for 3 days by Cell Titer-Glo assay; format: cell-based; conditions: BaF3, 72 h
[3] = molecular target: Epidermal growth factor receptor (Homo sapiens, UniProt P00533); test: Inhibition of […]-induced EGFR phosphorylation in human A549 cells pretreated for 2 hrs followed by EGF stimulation by immune assay; format: cell-based
[4] = Cmax in CD-1 mouse at 10 mg/kg, po by LC/MS/MS analysis; format: ADME, organism-based; parameters: dose 10 mg/kg, route po; conditions: in vivo
[5] = AUClast in CD-1 mouse at 10 mg/kg, po by LC/MS/MS analysis; format: ADME, organism-based; parameters: dose 10 mg/kg, route po; conditions: in vivo
[6] = Cmax in CD-1 rat at 10 mg/kg, po by LC/MS/MS analysis; format: ADME, organism-based; parameters: dose 10 mg/kg, route po; conditions: in vivo
[7] = AUClast in CD-1 rat at 10 mg/kg, po by LC/MS/MS analysis; format: ADME, organism-based; parameters: dose 10 mg/kg, route po; conditions: in vivo
[8] = Inhibition of mouse EGFR delE746_A750 mutant stably expressed in mouse BaF3 cells assessed as cell viability incubated for 3 days by Cell Titer-Glo assay; format: cell-based; conditions: BaF3, 72 h
[9] = Inhibition of mouse EGFR Del-T790M double mutant stably expressed in mouse BaF3 cells assessed as cell viability incubated for 3 days by Cell Titer-Glo assay; format: cell-based; conditions: BaF3, 72 h
BaF3 [10] = test: In vivo antitumor activity against mouse BaF3 cells expressing EGFR exon 20 insertion (ex20ins) ASV implanted in SCID mouse assessed as tumor growth inhibition at 50 mg/kg, po administered for 7 consecutive days; format: functional; conditions: 168 h, time 7 day, read-out: TGI
BaF3 [11] = test: In vivo antitumor activity against mouse BaF3 cells expressing EGFR exon 20 insertion (ex20ins) ASV implanted in SCID mouse assessed as tumor regression at 100 mg/kg, po administered for 7 consecutive days; format: functional; conditions: time 7 day
BaF3 [12] = test: In vivo antitumor activity against mouse BaF3 cells expressing EGFR exon 20 insertion (ex20ins) ASV implanted in SCID mouse assessed as tumor growth inhibition at 100 mg/kg, po administered for 7 consecutive days; format: functional; conditions: BaF3, 168 h, time 7 day, read-out: TGI
[13] = Cmax in CD rat at 5 mg/kg, po by LC/MS/MS analysis; format: ADME, organism-based; parameters: dose 5 mg/kg, route po; conditions: in vivo
[14] = AUC (0 to last)in CD rat at 5 mg/kg, po by LC/MS/MS analysis; format: ADME, organism-based; parameters: dose 5 mg/kg, route po; conditions: in vivo

Chain of Epidermal growth factor receptor (P00533 whole entry): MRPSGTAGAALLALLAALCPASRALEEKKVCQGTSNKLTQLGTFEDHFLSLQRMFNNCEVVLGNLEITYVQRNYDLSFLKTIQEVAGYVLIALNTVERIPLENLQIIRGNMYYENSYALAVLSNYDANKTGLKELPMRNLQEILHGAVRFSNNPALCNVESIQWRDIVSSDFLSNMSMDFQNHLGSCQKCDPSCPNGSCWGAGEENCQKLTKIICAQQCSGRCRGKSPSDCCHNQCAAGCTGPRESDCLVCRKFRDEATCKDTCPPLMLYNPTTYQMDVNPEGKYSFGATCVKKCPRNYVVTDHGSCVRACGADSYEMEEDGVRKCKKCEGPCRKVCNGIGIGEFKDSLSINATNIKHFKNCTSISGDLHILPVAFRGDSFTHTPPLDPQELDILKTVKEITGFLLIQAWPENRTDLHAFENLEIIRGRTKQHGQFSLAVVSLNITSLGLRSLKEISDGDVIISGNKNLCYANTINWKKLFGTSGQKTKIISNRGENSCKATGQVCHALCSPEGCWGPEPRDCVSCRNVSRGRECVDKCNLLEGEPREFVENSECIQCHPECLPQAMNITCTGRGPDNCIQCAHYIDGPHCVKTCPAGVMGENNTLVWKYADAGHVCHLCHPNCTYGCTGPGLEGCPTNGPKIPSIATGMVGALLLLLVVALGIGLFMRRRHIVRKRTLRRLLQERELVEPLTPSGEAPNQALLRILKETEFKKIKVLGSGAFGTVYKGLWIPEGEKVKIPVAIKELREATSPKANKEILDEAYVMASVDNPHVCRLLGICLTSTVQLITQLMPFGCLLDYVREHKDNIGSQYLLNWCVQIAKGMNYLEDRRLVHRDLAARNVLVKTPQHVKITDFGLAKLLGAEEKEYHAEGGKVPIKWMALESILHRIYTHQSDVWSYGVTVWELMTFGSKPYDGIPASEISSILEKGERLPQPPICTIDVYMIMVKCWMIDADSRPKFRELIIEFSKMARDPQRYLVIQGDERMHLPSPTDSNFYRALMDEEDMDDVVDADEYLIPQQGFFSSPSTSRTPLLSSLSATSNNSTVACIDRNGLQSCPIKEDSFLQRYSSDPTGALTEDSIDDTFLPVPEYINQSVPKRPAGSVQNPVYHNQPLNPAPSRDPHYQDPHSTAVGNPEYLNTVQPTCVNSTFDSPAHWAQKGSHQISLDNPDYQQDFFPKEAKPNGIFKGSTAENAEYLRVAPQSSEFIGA

SMILES	IC50 [3] [nM]	Cmax [4] [ng/mL]	AUC(0-t) [5] [ng·h/mL]	Cmax [6] [ng/mL]	AUC(0-t) [7] [ng·h/mL]	Cmax [13] [ng/mL]	AUC(0-t) [14] [ng·h/mL]	IC50 [1] [nM]	IC50 [2] [nM]	IC50 [8] [nM]	IC50 [9] [nM]	inhibition in vivo at 50 mg/kg (BaF3 [10]) [%]	Activity (BaF3 [11]) [%]	inhibition in vivo at 100 mg/kg (BaF3 [12]) [%]
C=CC(=O)Nc1cc(Nc2ncc(C(=O)OC(C)C)c(-c3cn4c5c(cccc35)CCC4)n2)c(OC)cc1N(C)CCN(C)C	39	–	–	–	–	–	–	6.57	12.4	–	–	–	–	–
C#Cc1cnc(Nc2cc(NC(=O)C=C)c(N(C)CCN(C)C)cc2OC)nc1-c1cn2c3c(cccc13)CCC2	42	–	–	–	–	–	–	9.8	25	–	–	–	–	–
CN(C)C/C=C/C(=O)Nc1cc2c(Nc3ccc(F)c(Cl)c3)ncnc2cc1O[C@H]1CCOC1 [AFATINIB]	–	–	–	–	–	–	–	36	44	0.6	97	–	–	–
C=CC(=O)Nc1cc(Nc2ncc(-c3ncco3)c(-c3cn4c5c(cccc35)CCC4)n2)c(OC)cc1N(C)CCN(C)C	45	57	234	86	1140	–	–	9	29	–	–	–	–	–
C=CC(=O)Nc1cc(Nc2ncc(C(=O)OC(C)C)c(-c3cn(C(C)=O)c4ccccc34)n2)c(OC)cc1N(C)CCN(C)C	79	42	87	16	38	–	–	3	4	–	–	–	–	–
C=CC(=O)Nc1cc(Nc2ncc(C(=O)OC(C)C)c(-c3cn(C)c4ccccc34)n2)c(OC)cc1N(C)C[C@H]1CCCN1C	43	94	294	40	323	–	–	6	12	–	–	72	-10	–
C=CC(=O)Nc1cc(Nc2ncc(C(=O)OC)c(-c3cn4c5c(cccc35)CCC4)n2)c(OC)cc1N(C)CCN(C)C	40	20	56	170	1920	–	–	6.57	22.1	–	–	–	–	–
C=CC(=O)Nc1cc(Nc2ncc(C(=O)OC(C)C)c(-c3cn(C4CC4)c4ccccc34)n2)c(OC)cc1N(C)CCN(C)C	224	–	–	–	–	–	–	23	30	–	–	–	–	–
C=CC(=O)Nc1cc(Nc2ncc(-c3nc(C)no3)c(-c3cn4c5c(cccc35)CCC4)n2)c(OC)cc1N(C)CCN(C)C	49	31	96	–	–	–	–	11	38	–	–	–	–	–
C=CC(=O)Nc1cc(Nc2ncc(C(=O)OC3CCC3)c(-c3cn(C)c4ccccc34)n2)c(OC)cc1N(C)CCN(C)C	84	–	–	–	–	–	–	9	28	–	–	–	–	–
C=CC(=O)Nc1cc(Nc2ncc(C(=O)OCC(C)C)c(-c3cn(C)c4ccccc34)n2)c(OC)cc1N(C)CCN(C)C	142	–	–	–	–	–	–	14	43	–	–	–	–	–
C=CC(=O)Nc1cc(Nc2nccc(-c3cn4c5c(cccc35)OCC4)n2)c(OC)cc1N(C)CCN(C)C	–	97	438	207	2680	–	–	52	137	–	–	–	–	–
C=CC(=O)Nc1cc(Nc2ncc(C(=O)OC(C)C)c(-c3cn(C)c4ccccc34)n2)c(OC)cc1N(C)C[C@@H]1CCCN1C	57	145	643	107	1390	–	–	8	14	–	–	82	-51	–
C=CC(=O)Nc1cc(Nc2ncc(Cl)c(-c3cn4c5c(cccc35)CCC4)n2)c(OC)cc1N(C)CCN(C)C	71	–	–	–	–	–	–	22	58	–	–	–	–	–
C=CC(=O)Nc1cc(Nc2nccc(-c3cn4c5c(cccc35)CCC4)n2)c(OC)cc1N(C)CCN(C)C	405	81	285	126	466	–	–	54	197	–	–	–	–	–
C=CC(=O)Nc1cccc(Nc2nc(Nc3ccc(N4CCN(C(C)=O)CC4)cc3OC)ncc2C(F)(F)F)c1 [ROCILETINIB]	–	–	–	–	–	–	–	179	883	25	9	–	–	–
C=CC(=O)Nc1cc(Nc2nccc(-c3c4n(c5ccccc35)CCOC4)n2)c(OC)cc1N(C)CCN(C)C	288	183	655	248	2670	–	–	53	112	–	–	–	–	–
C=CC(=O)Nc1cc(Nc2nccc(-c3cn(C)c4ccccc34)n2)c(OC)cc1N(C)CCN(C)C [OSIMERTINIB]	–	175	–	98	–	–	–	53	158	6	7	–	–	–
C=CC(=O)Nc1cc(Nc2ncc(C(=O)NC)c(-c3cn4c5c(cccc35)CCC4)n2)c(OC)cc1N(C)CCN(C)C	147	–	–	–	–	–	–	37.6	136	–	–	–	–	–
C=CC(=O)Nc1cc(Nc2ncc(Cl)c(-c3c4n(c5ccccc35)CCOC4)n2)c(OC)cc1N(C)CCN(C)C	2970	–	–	–	–	–	–	754	1020	–	–	–	–	–
C=CC(=O)Nc1cc(Nc2ncc(Cl)c(-c3cnn4ccccc34)n2)c(OC)cc1N(C)CCN(C)C	95	–	–	–	–	–	–	32	59	–	–	–	–	–

Second part, led by results:

IC50 [3] [nM]	Cmax [4] [ng/mL]	AUC(0-t) [5] [ng·h/mL]	Cmax [6] [ng/mL]	AUC(0-t) [7] [ng·h/mL]	Cmax [13] [ng/mL]	AUC(0-t) [14] [ng·h/mL]	SMILES	IC50 [1] [nM]	IC50 [2] [nM]	IC50 [8] [nM]	IC50 [9] [nM]	inhibition in vivo at 50 mg/kg (BaF3 [10]) [%]	Activity (BaF3 [11]) [%]	inhibition in vivo at 100 mg/kg (BaF3 [12]) [%]
23	–	–	–	–	–	–	C=CC(=O)Nc1cc(Nc2ncc(C(=O)CC)c(-c3cn4c5c(cccc35)CCC4)n2)c(OC)cc1N(C)CCN(C)C	4.95	17.3	–	–	–	–	–
19	45	129	113	1540	–	–	C=CC(=O)Nc1cc(Nc2ncc(C(=O)OCC)c(-c3cn(C)c4ccccc34)n2)c(OC)cc1N(C)CCN(C)C	6	13	–	–	–	–	–
20	31	92	207	2300	–	–	C=CC(=O)Nc1cc(Nc2ncc(C(=O)OC)c(-c3cn(C)c4ccccc34)n2)c(OC)cc1N(C)CCN(C)C	8	18	–	–	–	–	–
36	–	–	–	–	–	–	C=CC(=O)Nc1cc(Nc2ncc(Cl)c(-c3cn4c5c(cccc35)OCC4)n2)c(OC)cc1N(C)CCN(C)C	15	35	–	–	–	–	–
23	218	884	320	2950	–	–	C=CC(=O)Nc1cc(Nc2ncc(-c3ccnn3C)c(-c3cn4c5c(cccc35)CCC4)n2)c(OC)cc1N(C)CCN(C)C	11	28	–	–	–	–	–
15	46	353	163	2020	–	–	C=CC(=O)Nc1cc(Nc2ncc(-c3cnn(C(C)C)c3)c(-c3cn4c5c(cccc35)CCC4)n2)c(OC)cc1N(C)CCN(C)C	13	16	–	–	–	–	–
15	9	22	38	427	–	–	C=CC(=O)Nc1cc(Nc2ncc(-c3nnco3)c(-c3cn4c5c(cccc35)CCC4)n2)c(OC)cc1N(C)CCN(C)C	6.2	13	–	–	–	–	–
35	29	200	13	58	–	–	C=CC(=O)Nc1cc(Nc2ncc(C#N)c(-c3cn4c5c(cccc35)CCC4)n2)c(OC)cc1N(C)CCN(C)C	3.99	9.38	–	–	–	–	76
32	29	102	110	1480	–	–	C=CC(=O)Nc1cc(Nc2ncc(C(=O)OCC)c(-c3cn4c5c(cccc35)CCC4)n2)c(OC)cc1N(C)CCN(C)C	6.43	15	–	–	–	–	–
15	59	105	–	–	90	853	C=CC(=O)Nc1cc(Nc2ncc(-c3cnn(C)c3)c(-c3cn4c5c(cccc35)CCC4)n2)c(OC)cc1N(C)CCN(C)C	–	16	–	–	–	–	–
24	72	631	149	1920	–	–	C=CC(=O)Nc1cc(Nc2ncc(C(=O)OC(C)C)c(-c3cn(CC)c4ccccc34)n2)c(OC)cc1N(C)CCN(C)C	5	7	–	–	–	–	–

Reference: ChEMBL document CHEMBL5236603, “Discovery of mobocertinib, a potent, oral inhibitor of EGFR exon 20 insertion mutations in non-small cell lung cancer” (Bioorg Med Chem Lett, 2023)
